biological target: Mitogen-activated protein kinase 1 (Homo sapiens, UniProt P28482); assay: Inhibition of ERK2; settings: not given
Sequence (P28482 whole entry): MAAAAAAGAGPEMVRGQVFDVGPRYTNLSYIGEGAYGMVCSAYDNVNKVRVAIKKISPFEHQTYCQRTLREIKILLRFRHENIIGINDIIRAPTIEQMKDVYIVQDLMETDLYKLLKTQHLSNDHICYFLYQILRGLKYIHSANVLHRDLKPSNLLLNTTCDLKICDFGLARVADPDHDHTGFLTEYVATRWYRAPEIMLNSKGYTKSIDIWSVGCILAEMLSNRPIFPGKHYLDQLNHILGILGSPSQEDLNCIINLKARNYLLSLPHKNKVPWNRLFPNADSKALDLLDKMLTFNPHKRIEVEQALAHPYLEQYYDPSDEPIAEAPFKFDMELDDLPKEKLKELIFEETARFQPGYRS

Point of comparison: `CC[C@H](Nc1nc(NCc2ccccc2)c2ncn(C(C)C)c2n1)C(O)C(C)C` (mixture of isomers), IC50 88 µM. Against it:
- CC[C@H](Nc1nc(NCc2ccccc2)c2ncn(C(C)C)c2n1)C(O)C(C)(C)C (mixture of isomers) — higher, > 200 µM
- CC[C@H](CO)Nc1nc(NCc2cccnc2)c2ncn(C(C)C)c2n1 — 3.7-fold lower, 24 µM

test system: not listed separately; assay: Inhibition of PKA; settings: not given

Point of comparison: `CC[C@H](Nc1nc(NCc2ccccc2)c2ncn(C(C)C)c2n1)C(O)C(C)C` (mixture of isomers), IC50 83 µM. Against it:
- CC[C@@H](Nc1nc(NCc2cccnc2)c2ncn(C(C)C)c2n1)C(O)C(C)C (mixture of isomers) — higher, > 200 µM
- CC[C@H](Nc1nc(NCc2cccnc2)c2ncn(C(C)C)c2n1)C(O)C(C)(C)C (mixture of isomers) — higher, > 200 µM
- CCC(O)[C@@H](CC)Nc1nc(NCc2cccnc2)c2ncn(C(C)C)c2n1 (mixture of isomers) — higher, > 200 µM
- CC[C@H](Nc1nc(NCc2ccccc2)c2ncn(C(C)C)c2n1)C(O)C(C)(C)C (mixture of isomers) — higher, > 200 µM
- CC[C@H](CO)Nc1nc(NCc2cccnc2)c2ncn(C(C)C)c2n1 — not separable, > 50 µM

test system: not listed separately; assay: Metabolic stability in mouse liver microsomes assessed as compound metabolized at 10 uM after 30 mins by LC-MS analysis; format: ADME, Microsome; settings: read-out: Activity

Point of comparison: `CC[C@H](Nc1nc(NCc2cccnc2)c2ncn(C(C)C)c2n1)C(O)C(C)(C)C` (mixture of isomers), metabolised at 0.5 h, 10 µM 50%. Against it:
- CC[C@@H](Nc1nc(NCc2cccnc2)c2ncn(C(C)C)c2n1)C(O)C(C)C (mixture of isomers) — lower, 36%
- CCC(O)[C@@H](CC)Nc1nc(NCc2cccnc2)c2ncn(C(C)C)c2n1 (mixture of isomers) — lower, 30%
- CC[C@H](Nc1nc(NCc2ccccc2)c2ncn(C(C)C)c2n1)C(O)C(C)(C)C (mixture of isomers) — higher, 74%
- CC[C@H](Nc1nc(NCc2ccccc2)c2ncn(C(C)C)c2n1)C(O)C(C)C (mixture of isomers) — higher, 76%
- CC[C@H](CO)Nc1nc(NCc2cccnc2)c2ncn(C(C)C)c2n1 — higher, 54%

test system: CH1; assay: Growth inhibition of doxorubicin-resistant human CH1 cells after 96 hrs by sulforhodamine B assay; format: functional; settings: CH1, 96 h

Point of comparison: `CC[C@H](CO)Nc1nc(NCc2cccnc2)c2ncn(C(C)C)c2n1`, GI50 16.5 µM. Against it:
- CC[C@@H](Nc1nc(NCc2cccnc2)c2ncn(C(C)C)c2n1)C(O)C(C)C (mixture of isomers) — 1.5-fold higher, 25 µM
- CC[C@H](Nc1nc(NCc2cccnc2)c2ncn(C(C)C)c2n1)C(O)C(C)(C)C (mixture of isomers) — within 1.5-fold, 18.5 µM
- CCC(O)[C@@H](CC)Nc1nc(NCc2cccnc2)c2ncn(C(C)C)c2n1 (mixture of isomers) — within 1.5-fold, 14.5 µM
- CC[C@H](Nc1nc(NCc2ccccc2)c2ncn(C(C)C)c2n1)C(O)C(C)(C)C (mixture of isomers) — within 1.5-fold, 21.5 µM
- CC[C@H](Nc1nc(NCc2ccccc2)c2ncn(C(C)C)c2n1)C(O)C(C)C (mixture of isomers) — within 1.5-fold, 24 µM

biological target: Cyclin-dependent kinase 4/cyclin D1 (Homo sapiens, UniProt P11802); assay: Inhibition of CDK4/cyclin D1; format: protein-complex assay; settings: not given
Sequence (P11802 whole entry): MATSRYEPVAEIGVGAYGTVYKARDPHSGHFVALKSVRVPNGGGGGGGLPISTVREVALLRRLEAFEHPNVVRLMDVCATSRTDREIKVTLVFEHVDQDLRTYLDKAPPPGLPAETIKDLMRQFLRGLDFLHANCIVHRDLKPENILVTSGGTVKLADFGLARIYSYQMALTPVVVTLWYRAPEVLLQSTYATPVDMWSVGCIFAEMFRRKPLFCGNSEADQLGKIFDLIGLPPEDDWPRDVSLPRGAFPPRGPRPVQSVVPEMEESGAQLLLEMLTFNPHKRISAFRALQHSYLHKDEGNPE
Sequence (P24385 whole entry, further chain): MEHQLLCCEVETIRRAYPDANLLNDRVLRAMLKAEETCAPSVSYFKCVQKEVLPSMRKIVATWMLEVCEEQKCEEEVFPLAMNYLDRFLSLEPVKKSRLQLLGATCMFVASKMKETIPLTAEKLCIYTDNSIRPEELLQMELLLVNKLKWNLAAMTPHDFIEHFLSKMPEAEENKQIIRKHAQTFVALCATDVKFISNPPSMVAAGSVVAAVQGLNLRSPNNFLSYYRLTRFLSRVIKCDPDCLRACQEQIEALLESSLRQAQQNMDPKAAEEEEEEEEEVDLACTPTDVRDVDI

Point of comparison: `CCC(O)[C@@H](CC)Nc1nc(NCc2cccnc2)c2ncn(C(C)C)c2n1` (mixture of isomers), IC50 25 µM. Against it:
- CC[C@@H](Nc1nc(NCc2cccnc2)c2ncn(C(C)C)c2n1)C(O)C(C)C (mixture of isomers) — within 1.5-fold, 21 µM
- CC[C@H](Nc1nc(NCc2cccnc2)c2ncn(C(C)C)c2n1)C(O)C(C)(C)C (mixture of isomers) — 1.9-fold lower, 13 µM
- CC[C@H](Nc1nc(NCc2ccccc2)c2ncn(C(C)C)c2n1)C(O)C(C)C (mixture of isomers) — within 1.5-fold, 33 µM
- CC[C@H](CO)Nc1nc(NCc2cccnc2)c2ncn(C(C)C)c2n1 — within 1.5-fold, 20 µM

biological target: Cyclin-dependent kinase 2/cyclin E1 (Homo sapiens, UniProt P24941); assay: Inhibition of CDK2/cyclin E; format: protein-complex assay; settings: not given

Point of comparison: `CCC(O)[C@@H](CC)Nc1nc(NCc2cccnc2)c2ncn(C(C)C)c2n1` (mixture of isomers), IC50 0.22 µM. Against it:
- CC[C@@H](Nc1nc(NCc2cccnc2)c2ncn(C(C)C)c2n1)C(O)C(C)C (mixture of isomers) — 3.1-fold higher, 0.69 µM
- CC[C@H](Nc1nc(NCc2cccnc2)c2ncn(C(C)C)c2n1)C(O)C(C)(C)C (mixture of isomers) — 1.8-fold higher, 0.39 µM

test system: KM12; assay: Growth inhibition of human KM12 cells after 96 hrs by sulforhodamine B assay; format: functional; settings: KM12, 96 h

Point of comparison: `CC[C@@H](Nc1nc(NCc2cccnc2)c2ncn(C(C)C)c2n1)C(O)C(C)C` (mixture of isomers), GI50 31 µM. Against it:
- CC[C@H](Nc1nc(NCc2cccnc2)c2ncn(C(C)C)c2n1)C(O)C(C)(C)C (mixture of isomers) — 1.6-fold lower, 19 µM
- CCC(O)[C@@H](CC)Nc1nc(NCc2cccnc2)c2ncn(C(C)C)c2n1 (mixture of isomers) — 2.3-fold lower, 13.5 µM
- CC[C@H](Nc1nc(NCc2ccccc2)c2ncn(C(C)C)c2n1)C(O)C(C)(C)C (mixture of isomers) — 1.6-fold lower, 19 µM
- CC[C@H](Nc1nc(NCc2ccccc2)c2ncn(C(C)C)c2n1)C(O)C(C)C (mixture of isomers) — within 1.5-fold, 25 µM
- CC[C@H](CO)Nc1nc(NCc2cccnc2)c2ncn(C(C)C)c2n1 — 5.6-fold lower, 5.5 µM

test system: HT-29; assay: Growth inhibition of human HT-29 cells after 96 hrs by sulforhodamine B assay; format: functional; settings: HT-29, 96 h

Point of comparison: `CC[C@@H](Nc1nc(NCc2cccnc2)c2ncn(C(C)C)c2n1)C(O)C(C)C` (mixture of isomers), GI50 32 µM. Against it:
- CC[C@H](Nc1nc(NCc2cccnc2)c2ncn(C(C)C)c2n1)C(O)C(C)(C)C (mixture of isomers) — within 1.5-fold, 22 µM
- CCC(O)[C@@H](CC)Nc1nc(NCc2cccnc2)c2ncn(C(C)C)c2n1 (mixture of isomers) — 1.6-fold lower, 20 µM
- CC[C@H](Nc1nc(NCc2ccccc2)c2ncn(C(C)C)c2n1)C(O)C(C)(C)C (mixture of isomers) — within 1.5-fold, 21.5 µM
- CC[C@H](Nc1nc(NCc2ccccc2)c2ncn(C(C)C)c2n1)C(O)C(C)C (mixture of isomers) — within 1.5-fold, 23 µM
- CC[C@H](CO)Nc1nc(NCc2cccnc2)c2ncn(C(C)C)c2n1 — 5.5-fold lower, 5.8 µM

test system: HCT-116; assay: Growth inhibition of human HCT116 cells after 96 hrs by sulforhodamine B assay; format: functional; settings: HCT-116, 96 h

Point of comparison: `CC[C@H](CO)Nc1nc(NCc2cccnc2)c2ncn(C(C)C)c2n1`, GI50 4.5 µM. Against it:
- CC[C@@H](Nc1nc(NCc2cccnc2)c2ncn(C(C)C)c2n1)C(O)C(C)C (mixture of isomers) — 5.6-fold higher, 25 µM
- CC[C@H](Nc1nc(NCc2cccnc2)c2ncn(C(C)C)c2n1)C(O)C(C)(C)C (mixture of isomers) — 5.3-fold higher, 24 µM
- CCC(O)[C@@H](CC)Nc1nc(NCc2cccnc2)c2ncn(C(C)C)c2n1 (mixture of isomers) — 2.2-fold higher, 10 µM
- CC[C@H](Nc1nc(NCc2ccccc2)c2ncn(C(C)C)c2n1)C(O)C(C)(C)C (mixture of isomers) — 6-fold higher, 27 µM
- CC[C@H](Nc1nc(NCc2ccccc2)c2ncn(C(C)C)c2n1)C(O)C(C)C (mixture of isomers) — 5.3-fold higher, 24 µM

test system: CH1; assay: Growth inhibition of doxorubicin-susceptible human CH1 cells after 96 hrs by sulforhodamine B assay; format: functional; settings: CH1, 96 h

Point of comparison: `CC[C@@H](Nc1nc(NCc2cccnc2)c2ncn(C(C)C)c2n1)C(O)C(C)C` (mixture of isomers), GI50 30 µM. Against it:
- CC[C@H](Nc1nc(NCc2cccnc2)c2ncn(C(C)C)c2n1)C(O)C(C)(C)C (mixture of isomers) — within 1.5-fold, 23 µM
- CCC(O)[C@@H](CC)Nc1nc(NCc2cccnc2)c2ncn(C(C)C)c2n1 (mixture of isomers) — 1.7-fold lower, 18 µM
- CC[C@H](Nc1nc(NCc2ccccc2)c2ncn(C(C)C)c2n1)C(O)C(C)(C)C (mixture of isomers) — within 1.5-fold, 26 µM
- CC[C@H](Nc1nc(NCc2ccccc2)c2ncn(C(C)C)c2n1)C(O)C(C)C (mixture of isomers) — within 1.5-fold, 25 µM
- CC[C@H](CO)Nc1nc(NCc2cccnc2)c2ncn(C(C)C)c2n1 — 6.2-fold lower, 4.8 µM

test system: A2780; assay: Growth inhibition of cisplatin-susceptible human A2780 cells after 96 hrs by sulforhodamine B assay; format: functional; settings: A2780, 96 h

Point of comparison: `CC[C@H](CO)Nc1nc(NCc2cccnc2)c2ncn(C(C)C)c2n1`, GI50 5.2 µM. Against it:
- CC[C@@H](Nc1nc(NCc2cccnc2)c2ncn(C(C)C)c2n1)C(O)C(C)C (mixture of isomers) — 4.4-fold higher, 23 µM
- CC[C@H](Nc1nc(NCc2cccnc2)c2ncn(C(C)C)c2n1)C(O)C(C)(C)C (mixture of isomers) — 3.5-fold higher, 18 µM
- CCC(O)[C@@H](CC)Nc1nc(NCc2cccnc2)c2ncn(C(C)C)c2n1 (mixture of isomers) — within 1.5-fold, 6.2 µM
- CC[C@H](Nc1nc(NCc2ccccc2)c2ncn(C(C)C)c2n1)C(O)C(C)(C)C (mixture of isomers) — 4.1-fold higher, 21.5 µM
- CC[C@H](Nc1nc(NCc2ccccc2)c2ncn(C(C)C)c2n1)C(O)C(C)C (mixture of isomers) — 3.8-fold higher, 20 µM

test system: A2780; assay: Growth inhibition of cisplatin-resistant human A2780 cells after 96 hrs by sulforhodamine B assay; format: functional; settings: A2780, 96 h

Point of comparison: `CC[C@H](Nc1nc(NCc2ccccc2)c2ncn(C(C)C)c2n1)C(O)C(C)C` (mixture of isomers), GI50 23 µM. Against it:
- CC[C@@H](Nc1nc(NCc2cccnc2)c2ncn(C(C)C)c2n1)C(O)C(C)C (mixture of isomers) — 1.6-fold higher, 37 µM
- CC[C@H](Nc1nc(NCc2cccnc2)c2ncn(C(C)C)c2n1)C(O)C(C)(C)C (mixture of isomers) — within 1.5-fold, 22 µM
- CCC(O)[C@@H](CC)Nc1nc(NCc2cccnc2)c2ncn(C(C)C)c2n1 (mixture of isomers) — within 1.5-fold, 19 µM
- CC[C@H](Nc1nc(NCc2ccccc2)c2ncn(C(C)C)c2n1)C(O)C(C)(C)C (mixture of isomers) — the same, 23 µM
- CC[C@H](CO)Nc1nc(NCc2cccnc2)c2ncn(C(C)C)c2n1 — 3.5-fold lower, 6.6 µM

biological target: Cyclin-dependent kinase 1/cyclin B1 (Homo sapiens, UniProt P06493); assay: Inhibition of CDK1/cyclin B; format: protein-complex assay; settings: not given
Sequence (P06493 whole entry): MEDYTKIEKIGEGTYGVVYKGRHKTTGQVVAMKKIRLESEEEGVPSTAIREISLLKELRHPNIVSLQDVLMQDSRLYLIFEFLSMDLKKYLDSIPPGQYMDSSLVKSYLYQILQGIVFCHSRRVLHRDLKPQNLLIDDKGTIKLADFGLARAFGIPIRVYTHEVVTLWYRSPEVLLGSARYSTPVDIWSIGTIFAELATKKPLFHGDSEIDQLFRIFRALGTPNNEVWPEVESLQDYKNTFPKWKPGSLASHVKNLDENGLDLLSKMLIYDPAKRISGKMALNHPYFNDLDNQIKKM
Sequence (P14635 whole entry, further chain): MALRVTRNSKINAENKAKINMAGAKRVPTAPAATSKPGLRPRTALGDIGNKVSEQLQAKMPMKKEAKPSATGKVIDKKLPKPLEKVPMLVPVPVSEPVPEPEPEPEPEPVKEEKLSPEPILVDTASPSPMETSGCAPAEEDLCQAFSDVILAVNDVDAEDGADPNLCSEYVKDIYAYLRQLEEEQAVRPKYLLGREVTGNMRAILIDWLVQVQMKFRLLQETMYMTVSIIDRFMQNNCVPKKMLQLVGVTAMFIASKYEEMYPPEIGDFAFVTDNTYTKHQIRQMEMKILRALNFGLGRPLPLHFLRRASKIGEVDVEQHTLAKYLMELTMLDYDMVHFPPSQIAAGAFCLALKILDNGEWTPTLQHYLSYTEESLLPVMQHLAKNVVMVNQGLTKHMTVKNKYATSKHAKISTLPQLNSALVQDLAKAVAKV

Point of comparison: `CC[C@H](Nc1nc(NCc2cccnc2)c2ncn(C(C)C)c2n1)C(O)C(C)(C)C` (mixture of isomers), IC50 21 µM. Against it:
- CC[C@@H](Nc1nc(NCc2cccnc2)c2ncn(C(C)C)c2n1)C(O)C(C)C (mixture of isomers) — within 1.5-fold, 20 µM
- CCC(O)[C@@H](CC)Nc1nc(NCc2cccnc2)c2ncn(C(C)C)c2n1 (mixture of isomers) — 1.8-fold lower, 12 µM

biological target: Cyclin-dependent kinase 7/ cyclin H (Homo sapiens, UniProt P50613); assay: Inhibition of CDK7/cyclin H; format: protein-complex assay; settings: not given
Sequence (P51946 whole entry): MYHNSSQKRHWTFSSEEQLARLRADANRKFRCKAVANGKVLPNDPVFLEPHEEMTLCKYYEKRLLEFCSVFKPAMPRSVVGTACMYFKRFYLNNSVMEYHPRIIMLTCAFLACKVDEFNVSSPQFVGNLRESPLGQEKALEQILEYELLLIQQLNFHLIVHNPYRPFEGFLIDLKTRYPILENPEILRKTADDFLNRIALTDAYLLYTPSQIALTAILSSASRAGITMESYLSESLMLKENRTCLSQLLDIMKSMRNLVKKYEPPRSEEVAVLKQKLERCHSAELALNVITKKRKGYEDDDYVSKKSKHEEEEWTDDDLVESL
Sequence (P50613 whole entry): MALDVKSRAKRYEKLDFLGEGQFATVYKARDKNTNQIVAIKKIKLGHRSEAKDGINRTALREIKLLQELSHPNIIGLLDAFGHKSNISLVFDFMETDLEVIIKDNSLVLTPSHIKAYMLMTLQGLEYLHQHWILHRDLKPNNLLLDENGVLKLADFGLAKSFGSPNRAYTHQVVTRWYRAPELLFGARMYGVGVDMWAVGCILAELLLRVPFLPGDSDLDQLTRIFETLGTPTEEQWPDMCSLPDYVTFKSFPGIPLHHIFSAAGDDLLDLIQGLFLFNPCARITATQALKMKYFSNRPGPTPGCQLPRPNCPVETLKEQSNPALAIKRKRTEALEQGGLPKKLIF

Point of comparison: `CCC(O)[C@@H](CC)Nc1nc(NCc2cccnc2)c2ncn(C(C)C)c2n1` (mixture of isomers), IC50 1.1 µM. Against it:
- CC[C@@H](Nc1nc(NCc2cccnc2)c2ncn(C(C)C)c2n1)C(O)C(C)C (mixture of isomers) — 2-fold higher, 2.2 µM
- CC[C@H](Nc1nc(NCc2cccnc2)c2ncn(C(C)C)c2n1)C(O)C(C)(C)C (mixture of isomers) — 3.2-fold higher, 3.5 µM
- CC[C@H](Nc1nc(NCc2ccccc2)c2ncn(C(C)C)c2n1)C(O)C(C)C (mixture of isomers) — 2.7-fold higher, 3 µM
- CC[C@H](CO)Nc1nc(NCc2cccnc2)c2ncn(C(C)C)c2n1 — 6.1-fold lower, 0.18 µM

Reference: ChEMBL document CHEMBL1921760, “Design, synthesis and biological evaluation of 6-pyridylmethylaminopurines as CDK inhibitors” (Bioorg Med Chem, 2011)
